From PubChem BioAssay (NCI)
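In this assay, cells in 96-well plates receive the compound at five concentrations for 48 hours. Endpoints are linearly interpolated between the surrounding concentrations. TGI denotes the concentration required for complete inhibition of growth.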

How the values were obtained:
Experiment in all cases: NCI-60 cell line screen, 48 h
SK-MEL-2 melanoma = tested on: SK-MEL-2 melanoma
MCF7 breast = tested on: MCF7 breast
SK-MEL-5 melanoma = tested on: SK-MEL-5 melanoma
KM12 colon = tested on: KM12 colon
HOP-62 NSCLC = tested on: HOP-62 NSCLC
OVCAR-8 ovarian = tested on: OVCAR-8 ovarian
UACC-257 melanoma = tested on: UACC-257 melanoma
SR leukemia = tested on: SR leukemia
RPMI-8226 leukemia = tested on: RPMI-8226 leukemia

| SMILES | TGI (SK-MEL-2 melanoma) | TGI (MCF7 breast) | TGI (SK-MEL-5 melanoma) | TGI (KM12 colon) | TGI (HOP-62 NSCLC) | TGI (OVCAR-8 ovarian) | TGI (UACC-257 melanoma) | TGI (SR leukemia) | TGI (RPMI-8226 leukemia) |
| --- | --- | --- | --- | --- | --- | --- | --- | --- | --- |
| O=c1[nH]c(=O)n(Cc2ccccc2CO)cc1Sc1ccccc1 | 45.8 µM | > 100 µM | 26.7 µM | > 100 µM | > 100 µM | 48.2 µM | 72.4 µM | > 100 µM |  |
| O=c1cc(N2CCCC2)[nH]c(=O)n1-c1cccc(C(F)(F)F)c1 | > 100 µM | > 100 µM |  | > 100 µM | > 100 µM | > 100 µM | > 100 µM |  | > 100 µM |
| CSC1=C(C#N)C(=O)N(c2ccc(C)cc2)C(=S)C1C#N (configuration not stated) | > 100 µM | > 100 µM | > 100 µM | > 100 µM | > 100 µM | > 100 µM | > 100 µM |  |  |
| CC(=O)OC(OC(C)=O)n1cc(C=O)c2ccccc21 | > 100 µM | > 100 µM | > 100 µM |  | > 100 µM | > 100 µM | > 100 µM | > 100 µM | > 100 µM |
| COc1cccc(N(CN2CC=CC2=O)C(C)=O)c1 | > 100 µM | > 100 µM | > 100 µM | > 100 µM | > 100 µM | > 100 µM | > 100 µM |  | > 100 µM |
| COC(=O)n1c(=O)n(-c2ccccc2)c(=O)n1C(=O)OC | > 100 µM | > 100 µM | > 100 µM | > 100 µM |  | > 100 µM | > 100 µM | > 100 µM | > 100 µM |
| CSc1c(C#N)c(=O)[nH]c2n[nH]c(C)c12 | > 100 µM | > 100 µM | > 100 µM | > 100 µM |  | > 100 µM | > 100 µM | > 100 µM | > 100 µM |
| OC1(c2cc3ccccc3s2)CCCCC1 |  | > 100 µM | > 100 µM | > 100 µM | > 100 µM | > 100 µM | > 100 µM | > 100 µM |  |
| COC(=O)/C=C/c1cc(O)c2c(c1)[C@H](C(=O)OC)[C@@H](c1ccc(O)c(O)c1)O2 | > 70 µM | > 100 µM | 2.18 µM | 14.5 µM | > 58.7 µM | 4.37 µM | > 100 µM |  | > 41 µM |
| O=[N+]([O-])c1ccc(N=Nc2c(O)c(S(=O)(=O)O)cc3cc(S(=O)(=O)O)ccc23)cc1 | > 100 µM | > 100 µM | > 100 µM |  | > 100 µM | > 100 µM | > 100 µM | > 100 µM | > 100 µM |
| C=CCNC(=O)NC1=CSC2=NC(=O)C3(NN12)c1ccccc1-c1ccccc13 |  | > 10 µM | > 10 µM | > 10 µM | > 10 µM | > 10 µM | > 10 µM | > 10 µM | > 10 µM |
| CC(CO)C1C[C@H](O)[C@@]2(C)CC(=O)C=C(CO)[C@@H]2C1 (some centres not stated) | > 100 µM | > 100 µM | > 100 µM | > 100 µM | > 100 µM | > 100 µM | > 100 µM |  |  |
